Experiment: Measurement of total area by solid phase microextraction GC/FID method
Assay type: physicochemical
Design: unit not given here
Conditions: total area attributable to components other than the glyceryl ethers; 1.0 g glyceryl ether, 15 minutes at 50° C., after deodorization for the stated time
Protocol: The total area, as measured using a solid phase microextraction GC/FID method, was measured for each of glyceryl ethers 1 to 12 following the deodorization. Specifically, 1.0 g of a deodorized glyceryl ether was placed in a container, impurities and by-products contained in the glyceryl ether were adsorbed on fibers of DVB/PDMS (divinylbenzene dispersed/polydimethylsiloxane) by heating for 15 minutes at 50° C., these fibers were placed in a holder, and measurements were carried out using gas chromatography (apparatus: GC-2014, produced by Shimadzu Corporation) under the measurement conditions shown below. The total area attributable to components other than the glyceryl ethers was then calculated on the basis of a JIS K 0114 (2012) absolute calibration curve using the analysis software of the chromatography apparatus.
Column: InertCap (registered trademark) PureWAX (length 30 m, film […] 0.50 μm, inner diameter […])
Carrier flow rate: 124.5 mL/min
Injection port temperature: 260° C.
Detector temperature: 260° C.

Total area | SMILES
200,000 | CCCCCCOCC(O)CO (stereo not drawn) [Glyceryl ether 1, Monohexyl glyceryl ether]
120,000 | CCCCCCOCC(O)CO (stereo not drawn) [Glyceryl ether 2, Monohexyl glyceryl ether]
80,000 | CCCCCCOCC(O)CO (stereo not drawn) [Glyceryl ether 3, Monohexyl glyceryl ether]
80,000 | CCCCCCOCC(O)CO (stereo not drawn) [Glyceryl ether 4, Monohexyl glyceryl ether]
60,000 | CCCCCCOCC(O)CO (stereo not drawn) [Glyceryl ether 5, Monohexyl glyceryl ether]
50,000 | CCCCCCOCC(O)CO (stereo not drawn) [Glyceryl ether 6, Monohexyl glyceryl ether]
50,000 | CCCCCCOCC(O)CO (stereo not drawn) [Glyceryl ether 7, Monohexyl glyceryl ether]
300,000 | OCC(O)COC1CCCCC1 (stereo not drawn) [Glyceryl ether 8, Monocyclohexyl glyceryl ether]
150,000 | OCC(O)COC1CCCCC1 (stereo not drawn) [Glyceryl ether 9, Monocyclohexyl glyceryl ether]
90,000 | OCC(O)COC1CCCCC1 (stereo not drawn) [Glyceryl ether 10, Monocyclohexyl glyceryl ether]
50,000 | OCC(O)COC1CCCCC1 (stereo not drawn) [Glyceryl ether 11, Monocyclohexyl glyceryl ether]
50,000 | OCC(O)COC1CCCCC1 (stereo not drawn) [Glyceryl ether 12, Monocyclohexyl glyceryl ether]

Reference: US11918668B2, “Method for producing glyceryl ether-containing composition, and glyceryl ether-containing composition” (ADEKA CORPORATION, priority 2018, dated 2024)
